Laboratory results reported in paper PMC5811991 (Biochemistry, 2008).

Target: GDP-perosamine synthase (Caulobacter vibrioides, UniProt Q9A9H3)
Assay: HPLC assay of substrate decrease
Format: biochemical
Conditions: substrate inhibition, competitive versus glutamate (ping-pong, Eq. 1); 100 μM PLP, 20 mM HEPES pH 7.5, 110 mM NaCl, 10 mM MgCl2, room temperature

Sequence of GDP-perosamine synthase (Q9A9H3 whole entry): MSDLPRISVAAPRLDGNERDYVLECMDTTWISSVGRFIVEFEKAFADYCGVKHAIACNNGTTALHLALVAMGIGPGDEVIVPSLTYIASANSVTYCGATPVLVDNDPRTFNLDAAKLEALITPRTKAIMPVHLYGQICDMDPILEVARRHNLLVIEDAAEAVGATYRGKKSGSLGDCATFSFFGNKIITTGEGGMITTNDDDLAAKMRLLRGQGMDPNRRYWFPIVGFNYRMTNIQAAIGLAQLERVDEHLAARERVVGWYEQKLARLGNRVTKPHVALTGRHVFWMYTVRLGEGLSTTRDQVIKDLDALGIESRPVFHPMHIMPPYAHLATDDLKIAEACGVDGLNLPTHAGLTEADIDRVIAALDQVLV

Ki sugar: 89 ± 34 µM
Compound: C[C@H]1O[C@H](OP(=O)(O)OP(=O)(O)OC[C@H]2O[C@@H](n3cnc4c(=O)[nH]c(N)nc43)[C@H](O)[C@@H]2O)[C@@H](O)[C@@H](O)C1=O [GDP-4-keto-6-deoxymannose]
